{"source": "ChEMBL document CHEMBL6071161", "about": "“Drug repurposing against antibiotic resistant bacterial pathogens” (2024)", "type_in_all_cases": "functional", "key": {"Pseudomonas aeruginosa [1]": {"tested_on": "Pseudomonas aeruginosa", "assay": "Antibacterial activity against Pseudomonas aeruginosa ATCC 27853 assessed as bacterial growth inhibition measured after 18 hrs by CLSI protocol based two-fold serial microdilution method"}, "Staphylococcus aureus [2]": {"tested_on": "Staphylococcus aureus", "assay": "Antibiofilm activity against Staphylococcus aureus ATCC 25923 assessed as inhibition of biofilm formation incubated for 24 hrs by crystal violet staining based analysis"}, "Enterococcus faecium [3]": {"tested_on": "Enterococcus faecium", "assay": "Antibacterial activity against Enterococcus faecium assessed as reduction in bacterial growth"}, "Neisseria gonorrhoeae [4]": {"tested_on": "Neisseria gonorrhoeae", "assay": "Antibacterial activity against Neisseria gonorrhoeae"}, "Enterococcus faecalis [5]": {"tested_on": "Enterococcus faecalis", "assay": "Antimicrobial activity against Enterococcus faecalis ATCC 29212 assessed as reduction in microbial growth incubated for 16 to 20 hrs by CLSI-protocol based Mueller-Hinton broth assay", "settings": "time 16-20 hrs"}, "Pseudomonas aeruginosa [6]": {"tested_on": "Pseudomonas aeruginosa", "assay": "Antibacterial activity against Pseudomonas aeruginosa ATCC 27853 assessed as reduction in bacterial growth by broth microdilution method"}, "Klebsiella pneumoniae [7]": {"tested_on": "Klebsiella pneumoniae", "assay": "Antibacterial activity against Klebsiella pneumoniae ATCC 700603 assessed as reduction in bacterial growth by microbroth dilution assay"}, "Helicobacter pylori [8]": {"tested_on": "Helicobacter pylori", "assay": "Antibacterial activity against Helicobacter pylori assessed as inhibition of bacterial growth by broth micro-dilution assay"}, "Staphylococcus aureus [9]": {"tested_on": "Staphylococcus aureus", "assay": "Antimicrobial activity against methicillin-resistant Staphylococcus aureus ATCC 29213 assessed as reduction in microbial growth by CLSI brith micro-dilution method"}, "Staphylococcus aureus [10]": {"tested_on": "Staphylococcus aureus", "assay": "Antibacterial activity against vancomycin-resistant Staphylococcus aureus VRS 1 assessed as reduction in bacterial growth"}, "Neisseria gonorrhoeae [11]": {"tested_on": "Neisseria gonorrhoeae", "assay": "Antibacterial activity against Neisseria gonorrhoeae ATCC 49226 assessed as reduction in bacterial growth incubated for 20 to 24 hrs by CLSI-based protocol based two-fold serial microdilution method", "settings": "time 20-24 hrs"}, "Klebsiella pneumoniae [12]": {"tested_on": "Klebsiella pneumoniae", "assay": "Antibacterial activity against Klebsiella pneumoniae ATCC 10031 assessed as reduction in microbial growth after 24 hrs by two-fold serial dilution method"}, "Staphylococcus aureus [13]": {"tested_on": "Staphylococcus aureus", "assay": "Antibacterial activity against Staphylococcus aureus ATCC 25923 assessed as reduction in microbial growth after 24 hrs by two-fold serial dilution method"}, "Staphylococcus aureus [14]": {"tested_on": "Staphylococcus aureus", "assay": "Antimicrobial activity against […] Staphylococcus aureus ATCC 25923 assessed as reduction in microbial growth by CLSI protocol based analysis"}, "Staphylococcus aureus [15]": {"tested_on": "Staphylococcus aureus", "assay": "Antimicrobial activity against methicillin-sensitive Staphylococcus aureus ATCC 29213 assessed as reduction in bacterial growth by CLSI protocol based analysis"}, "Neisseria gonorrhoeae [16]": {"tested_on": "Neisseria gonorrhoeae", "assay": "Antibacterial activity against resistant Neisseria gonorrhoeae assessed inhibition of bacterial growth"}, "Staphylococcus aureus [17]": {"tested_on": "Staphylococcus aureus", "assay": "Antibacterial activity against methicillin-resistant Staphylococcus aureus ATCC 43300 assessed as reduction in bacterial growth by CLSI protocol based broth micro-dilution method"}, "Acinetobacter baumannii": {"tested_on": "Acinetobacter baumannii", "assay": "Antibacterial activity against Acinetobacter baumannii BAA-1605 assessed as reduction in bacterial growth"}, "Enterococcus faecalis [18]": {"tested_on": "Enterococcus faecalis", "assay": "Antibacterial activity against […] Enterococcus faecalis ATCC 29212 assessed as reduction in bacterial growth by CLSI protocol based two-fold serial broth microdilution method"}, "Enterococcus faecium [19]": {"tested_on": "Enterococcus faecium", "assay": "Antibacterial activity against vancomycin-resistant Enterococcus faecium assessed as reduction in bacterial growth CLSI-based double dilution method"}, "Staphylococcus aureus [20]": {"tested_on": "Staphylococcus aureus", "assay": "Antibacterial activity against methicillin-resistant Staphylococcus aureus ATCC 43300 assessed as reduction in bacterial growth by CLSI protocol based two-fold serial broth microdilution method"}, "Helicobacter pylori [21]": {"tested_on": "Helicobacter pylori", "assay": "Antibacterial activity against Helicobacter pylori ATCC 700392 assessed as reduction in bacterial growth incubated for 24 hrs by broth micro-dilution method"}, "Staphylococcus aureus [22]": {"tested_on": "Staphylococcus aureus", "assay": "Antibacterial activity against Staphylococcus aureus RN4220 assessed as inhibition of microbial growth"}, "Helicobacter pylori [23]": {"tested_on": "Helicobacter pylori", "assay": "Antibacterial activity against Helicobacter pylori ATCC 43504 assessed as reduction in bacterial growth incubated for 24 hrs by broth micro-dilution method"}, "Pseudomonas aeruginosa [24]": {"tested_on": "Pseudomonas aeruginosa", "assay": "Antibacterial activity against Pseudomonas aeruginosa PAO1 assessed as bacterial growth inhibition measured after 18 hrs by CLSI protocol based two-fold serial microdilution method"}, "Staphylococcus aureus [25]": {"tested_on": "Staphylococcus aureus", "assay": "Antimicrobial activity against Staphylococcus aureus ATCC 25923 assessed as reduction in microbial growth after 24 hrs by CLSI based broth microdilution method"}, "Pseudomonas aeruginosa [26]": {"tested_on": "Pseudomonas aeruginosa", "assay": "Antibacterial activity against Pseudomonas aeruginosa assessed as inhibition of bacterial growth incubated for 24 hrs by broth microdilution method"}, "Enterococcus faecium [27]": {"tested_on": "Enterococcus faecium", "assay": "Antibacterial activity against Enterococcus faecium"}}}
{"smiles": "CN[C@@H]1[C@@H](O[C@H]2O[C@H](CO)[C@@H](N)[C@H](O)[C@H]2O)O[C@H]2C[C@@H](N)[C@@H](O[C@H]3[C@H](O)[C@@H](O)[C@H](N)C[C@@H]3N)O[C@@H]2[C@@H]1O", "values": [{"measurement": "MIC", "setting": "Pseudomonas aeruginosa [1]", "result": 32, "unit": "µg/mL"}]}
{"smiles": "O=C(Nc1ccc(C(F)(F)F)cc1)Nc1ccc(C(F)(F)F)cc1", "values": [{"measurement": "MBEC", "setting": "Staphylococcus aureus [2]", "result": 0.78, "unit": "µmol/L"}, {"measurement": "MIC", "setting": "Enterococcus faecium [3]", "result": 1.6, "unit": "µM"}]}
{"smiles": "CN(C)Cc1ccc2c(Cl)cc(Cl)c(O)c2n1", "values": [{"measurement": "MIC", "setting": "Neisseria gonorrhoeae [4]", "result": 0.31, "unit": "µg/mL"}]}
{"smiles": "CC(C)Oc1ccc(/C=N/NC(=N)N/N=C/c2ccc(OC(C)C)cc2)cc1", "values": [{"measurement": "MIC", "setting": "Enterococcus faecalis [5]", "result": 1, "unit": "µg/mL"}]}
{"smiles": "CC/C(=C(\\c1ccc(O)cc1)c1ccc(OCCN(C)C)cc1)c1ccccc1", "note": "[AFIMOXIFENE]", "values": [{"measurement": "MIC", "setting": "Pseudomonas aeruginosa [6]", "result": 16, "unit": "µg/mL"}]}
{"smiles": "Nc1c2ccccc2nc2ccccc12", "note": "[AMINACRINE]", "values": [{"measurement": "MIC", "setting": "Klebsiella pneumoniae [7]", "result": 8, "unit": "µg/mL"}]}
{"smiles": "O=C(O)C(=O)CBr", "note": "[BROMOPYRUVATE]", "values": [{"measurement": "MIC", "setting": "Helicobacter pylori [8]", "result": 32, "unit": "µg/mL"}]}
{"smiles": "Cc1ccc(-c2cc(C(F)(F)F)nn2-c2ccc(S(N)(=O)=O)cc2)cc1", "note": "[CELECOXIB]", "values": [{"measurement": "MIC", "setting": "Staphylococcus aureus [9]", "result": 32, "unit": "µg/mL"}, {"measurement": "MIC", "setting": "Staphylococcus aureus [10]", "result": 128, "unit": "µg/mL"}]}
{"smiles": "Oc1c(Cl)cc(Cl)c2cccnc12", "note": "[CHLOROXINE]", "values": [{"measurement": "MIC", "setting": "Neisseria gonorrhoeae [11]", "result": 0.28, "unit": "µM"}]}
{"smiles": "Cc1cc(C2CCCCC2)n(O)c(=O)c1", "note": "[CICLOPIROX]", "values": [{"measurement": "MIC", "setting": "Klebsiella pneumoniae [12]", "result": 5, "unit": "µg/mL"}]}
{"smiles": "Oc1c(I)cc(Cl)c2cccnc12", "note": "[CLIOQUINOL]", "values": [{"measurement": "MIC", "setting": "Neisseria gonorrhoeae [11]", "result": 0.28, "unit": "µM"}]}
{"smiles": "COc1cc(/C=C/C(=O)CC(=O)/C=C/c2ccc(O)c(OC)c2)ccc1O", "note": "[CURCUMIN]", "values": [{"measurement": "MIC", "setting": "Staphylococcus aureus [13]", "result": 100, "unit": "µg/mL"}]}
{"smiles": "CC1=NN(c2ccc(C)c(C)c2)C(=O)/C1=N\\Nc1cccc(-c2cccc(C(=O)O)c2)c1O", "note": "[ELTROMBOPAG]", "values": [{"measurement": "MIC", "setting": "Staphylococcus aureus [14]", "result": 2, "unit": "µg/mL"}, {"measurement": "MIC", "setting": "Staphylococcus aureus [15]", "result": 2, "unit": "µg/mL"}]}
{"smiles": "O=C(O)c1ccccc1Nc1cccc(C(F)(F)F)c1", "note": "[FLUFENAMIC ACID]", "values": [{"measurement": "MIC50", "setting": "Neisseria gonorrhoeae [16]", "result": 4, "unit": "µg/mL"}]}
{"smiles": "CC[C@H](c1ccc(O)cc1)[C@@H](CC)c1ccc(O)cc1", "note": "[HEXESTROL]", "values": [{"measurement": "MIC", "setting": "Staphylococcus aureus [17]", "result": 16, "unit": "µg/mL"}]}
{"smiles": "Oc1c(I)cc(I)c2cccnc12", "note": "[IODOQUINOL]", "values": [{"measurement": "MIC", "setting": "Neisseria gonorrhoeae [11]", "result": 0.1, "unit": "µM"}]}
{"smiles": "CO[C@@]12[C@H](COC(N)=O)C3=C(C(=O)C(C)=C(N)C3=O)N1C[C@@H]1N[C@@H]12", "note": "[MITOMYCIN]", "values": [{"measurement": "MIC", "setting": "Acinetobacter baumannii", "result": 20, "unit": "µg/mL"}]}
{"smiles": "CC/C(=C(\\c1ccccc1)c1ccc(OCCNC)cc1)c1ccccc1", "note": "[N-DESMETHYLTAMOXIFEN]", "values": [{"measurement": "MIC", "setting": "Pseudomonas aeruginosa [6]", "result": 16, "unit": "µg/mL"}]}
{"smiles": "O=C(Nc1ccc([N+](=O)[O-])cc1Cl)c1cc(Cl)ccc1O", "note": "[NICLOSAMIDE]", "values": [{"measurement": "MIC", "setting": "Enterococcus faecalis [18]", "result": 0.125, "unit": "µg/mL"}, {"measurement": "MIC", "setting": "Enterococcus faecium [19]", "result": 1, "unit": "µg/mL"}, {"measurement": "MIC", "setting": "Staphylococcus aureus [20]", "result": 0.06, "unit": "µg/mL"}]}
{"smiles": "COCCOC(=O)C1=C(C)NC(C)=C(C(=O)OC(C)C)C1c1cccc([N+](=O)[O-])c1", "note": "(stereo not given) [NIMODIPINE]", "values": [{"measurement": "MIC", "setting": "Helicobacter pylori [21]", "result": 4, "unit": "µg/mL"}]}
{"smiles": "CCOC(=O)C1=C(C)NC(C)=C(C(=O)OC)C1c1cccc([N+](=O)[O-])c1", "note": "(stereo not given) [NITRENDIPINE]", "values": [{"measurement": "MIC", "setting": "Helicobacter pylori [21]", "result": 4, "unit": "µg/mL"}]}
{"smiles": "O=C(Nc1cc(Cl)cc(Cl)c1O)c1c(O)c(Cl)cc(Cl)c1Cl", "note": "[OXYCLOZANIDE]", "values": [{"measurement": "MIC", "setting": "Staphylococcus aureus [22]", "result": 0.125, "unit": "µg/mL"}]}
{"smiles": "Oc1cccc2cccnc12", "note": "[OXYQUINOLINE]", "values": [{"measurement": "MIC", "setting": "Neisseria gonorrhoeae [11]", "result": 0.08, "unit": "µM"}]}
{"smiles": "NC(=O)c1ccccc1O", "note": "[SALICYLAMIDE]", "values": [{"measurement": "MIC", "setting": "Neisseria gonorrhoeae [16]", "result": 8, "unit": "µg/mL"}]}
{"smiles": "CN[C@H]1CC[C@@H](c2ccc(Cl)c(Cl)c2)c2ccccc21", "note": "[SERTRALINE]", "values": [{"measurement": "MIC", "setting": "Helicobacter pylori [23]", "result": 32, "unit": "µg/mL"}]}
{"smiles": "N[C@@H](CC(=O)N1CCn2c(nnc2C(F)(F)F)C1)Cc1cc(F)c(F)cc1F", "note": "[SITAGLIPTIN]", "values": [{"measurement": "MIC", "setting": "Pseudomonas aeruginosa [24]", "result": 16, "unit": "µg/mL"}]}
{"smiles": "CN(C)C(=S)SSC(=S)N(C)C", "note": "[THIRAM]", "values": [{"measurement": "MIC90", "setting": "Staphylococcus aureus [25]", "result": 4, "unit": "µg/mL"}]}
{"smiles": "NC[C@H]1O[C@H](O[C@H]2[C@H](O)[C@@H](O[C@H]3O[C@H](CO)[C@@H](O)[C@H](N)[C@H]3O)[C@H](N)C[C@@H]2N)[C@H](N)C[C@@H]1O", "note": "[TOBRAMYCIN]", "values": [{"measurement": "MIC90", "setting": "Pseudomonas aeruginosa [26]", "result": 2.2, "unit": "µg/mL"}]}
{"smiles": "Cc1c(Cl)cccc1Nc1ccccc1C(=O)O", "note": "[TOLFENAMIC ACID]", "values": [{"measurement": "MIC50", "setting": "Neisseria gonorrhoeae [16]", "result": 4, "unit": "µg/mL"}]}
{"smiles": "CN[C@H](CC(C)C)C(=O)N[C@H]1C(=O)N[C@@H](CC(N)=O)C(=O)N[C@H]2C(=O)N[C@H]3C(=O)N[C@H](C(=O)N[C@H](C(=O)O)c4cc(O)cc(O)c4-c4cc3ccc4O)[C@H](O)c3ccc(c(Cl)c3)Oc3cc2cc(c3O[C@@H]2O[C@H](CO)[C@@H](O)[C@H](O)[C@H]2O[C@H]2C[C@](C)(N)[C@H](O)[C@H](C)O2)Oc2ccc(cc2Cl)[C@H]1O", "note": "[VANCOMYCIN]", "values": [{"measurement": "MIC", "setting": "Enterococcus faecium [27]", "result": 8, "unit": "µg/mL"}]}
